Here are results for four compounds from US11401233B1, “Pleuromutilin salicylic acid ester with antibacterial activity and a method of preparing the same” (SHAANXI UNIVERSITY OF SCIENCE AND TECHNOLOGY, priority 2021, dated 2022).

The test system of assay [1] is multi-resistant Staphylococcus aureus 596 (MRSA-596). Kind of assay: Paper diffusion method drug sensitivity test, MRSA-596. Type of assay: cell-based. The settings on record: for Zone of inhibition: MRSA-596, 30 μg/tablet paper disc 6.35 mm, LB plate, 37° C., 24 h, ≥17 mm sensitive, 15-16 mm intermediary, ≤14 mm drug resistance. Here is the method:
(§1) The antimicrobial efficacy was determined by a paper diffusion method drug sensitivity test.
(§2) E Experimental strains: multi-resistant Staphylococcus aureus 206 (MRSA-206), multi-resistant Staphylococcus aureus 575 (MRSA-575), multi-resistant Staphylococcus aureus 596 (MRSA-596). The experimental strain was identified by Huashan Hospital Affiliated to Fudan University (Institute of Antibiotic of Fudan University).
(§3) Drug sensitive paper: The drug sensitive paper was a special drug sensitive paper with a diameter of 6.35 mm and a water absorption of 0.02 mL. The control drug was vancomycin (30 μg/tablet); the test drugs were pleuromulin (30 μg/tablet), salicylic acid (30 μg/tablet) and pleuromulin salicylic acid ester (30 μg/tablet).
(§4) Reagents: LB agar medium, LA broth medium, 0.5% DMSO solution.
(§5) T The experimental strains were inoculated in non-selective medium and placed in air at 37° C. for 24 h. A single colony that grows well and inoculate it into broth medium was incubate at 35° C.±2° C. for 6 hours, and LA broth medium was used to calibrate the concentration of the bacterial solution to 0.5 Mie turbidimetric tube (1.5×10^8 CFU/mL). A bacterial suspension was obtained.
(§6) LB dry powder was weighed, sterilized at 103.4 Kpa, 121.3° C. high-pressure steam for 15 min, and then placed it in a 40° C.-50° C. water bath. A sterile empty plate (inner diameter 9 cm) was placed on the surface of the ultra-clean table water table, and […] to the plate. The thickness of each plate was 3 mm to 4 mm. After the plate was cooled at room temperature, it was stored in the refrigerator at 2° C.-8° C. A sterile cotton swab was used to dip the bacterial solution and ti evenly coat the surface of the LB plate 3 times. After inoculation of the bacterial suspension, the LB plate was dried at room temperature for 3 min to 5 min. Sterile forceps were used to closely attach the antibacterial drug paper to the dish. The dish was put upside down and placed in a 37° C. incubator for 24 h. The results were observed by measuring the diameter. Taking 0.5% DMSO solution as a negative control, the antibacterial activity is expressed by the diameter of the inhibition zone. The inhibition zone≥17 mm, sensitive; the inhibition zone of 15 mm-16 mm, intermediary; the inhibition zone≤14 mm, drug resistance.

For the next assay, the system named is drug-resistant bacteria. Nature of the assay: Paper diffusion method drug sensitivity test, overall statement on drug-resistant bacteria. The settings on record: drug-resistant bacteria in general (strains of Table 1); 30 μg/tablet. Type of assay: cell-based, Staphylococcus aureus. As for the experimental part: as §1, §2, §3, §4, §5
as §6, with “Taking 0.5% DMSO solution as a negative control, the antibacterial activity is expressed by the diameter of the inhibition zone. The inhibition zone≥17 mm, sensitive; the inhibition zone of 15 mm-16 mm, intermediary; the inhibition zone≤14 mm, drug resistance.” left out

Assay [2] concerns multi-resistant Staphylococcus aureus 575 (MRSA-575). Nature of the assay: Paper diffusion method drug sensitivity test, MRSA-575. In kind it is cell-based. Conditions: for Zone of inhibition: MRSA-575, 30 μg/tablet paper disc 6.35 mm, LB plate, 37° C., 24 h, ≥17 mm sensitive, 15-16 mm intermediary, ≤14 mm drug resistance. Here is the method:
as §1, §2, §3, §4, §5, §6

The test system of another assay is MRSA-171. Nature of the assay: Paper diffusion method drug sensitivity test, MRSA-171. Type of assay: cell-based, Staphylococcus aureus. The settings on record: for Zone of inhibition: MRSA-171, 30 μg/tablet paper disc 6.35 mm, LB plate, 37° C., 24 h, ≥17 mm sensitive, 15-16 mm intermediary, ≤14 mm drug resistance.

On to `C=C[C@]1(C)C[C@@H](OC(=O)COC(=O)c2ccccc2O)[C@]2(C)[C@H](C)CC[C@]3(CCC(=O)[C@H]32)[C@@H](C)[C@@H]1O`, for which the results for the Zone of inhibition (in assay [1]; in assay [2]; in the assay with MRSA-171) were 26 mm, 10 mm and 16 mm, respectively. Moreover, the “inhibitory effect (in words)” value in assay [1] (multi-drug resistant Staphylococcus aureus 596, 30 μg/tablet) is listed as “strong inhibitory effects”; in assay [2] (multi-drug resistant Staphylococcus aureus 575, 30 μg/tablet), “strong inhibitory effects”; in the assay with MRSA-171 (multi-drug resistant Staphylococcus aureus 171, 30 μg/tablet) it was “strong inhibitory effects”. For the same compound, the “inhibitory effect on drug-resistant bacteria (in words)” value in the assay with drug-resistant bacteria is “excellent antibacterial activity and anti-drug-resistant bacteria activity”.
Consider `C=C[C@]1(C)C[C@@H](OC(=O)CO)[C@]2(C)[C@H](C)CC[C@]3(CCC(=O)[C@H]32)[C@@H](C)[C@@H]1O` [Pleuromulin], for which the Zone of inhibition (in assay [1]; in assay [2]; in the assay on MRSA-171) was 0 mm each time. Moreover, the “inhibitory effect on drug-resistant bacteria (in words)” value in the assay with drug-resistant bacteria is reported as “no inhibitory effect”.
As to `O=C(O)c1ccccc1O` [Salicylic acid], the Zone of inhibition (in assay [1]; in assay [2]; in the assay on MRSA-171) was 0 mm in each case. Also, in the assay with drug-resistant bacteria, the “inhibitory effect on drug-resistant bacteria (in words)” value was “no inhibitory effect”.
In the case of `CN[C@H](CC(C)C)C(=O)N[C@H]1C(=O)N[C@@H](CC(N)=O)C(=O)N[C@H]2C(=O)N[C@H]3C(=O)N[C@H](C(=O)N[C@H](C(=O)O)c4cc(O)cc(O)c4-c4cc3ccc4O)[C@H](O)c3ccc(c(Cl)c3)Oc3cc2cc(c3O[C@@H]2O[C@H](CO)[C@@H](O)[C@H](O)[C@H]2O[C@H]2C[C@](C)(N)[C@H](O)[C@H](C)O2)Oc2ccc(cc2Cl)[C@H]1O` [Vancomycin, vancomycin], the figures for the Zone of inhibition (in assay [1]; in assay [2]; in the assay on MRSA-171) were 23 mm, 17 mm and 15 mm, respectively.
